Patent US12187684B2, “Benzimidazole derivatives as modulators of retinoid-related orphan receptor gamma (RORγ) and pharmaceutical use thereof” (Jiangsu Hengrui Medicine Co., Ltd., priority 2018, dated 2025)

Columns and labels:
[1] = test system: IL-17 production, human PBMC cells; assay: IL-17 production assay using human PBMC; type: cell-based; details: Homo sapiens, PBMC, 72 h, human PBMC stimulated by cytostim for 3 days, IL-17 ELISA of supernatant
Excerpt: Test Example 2. IL-17 Production Assay Using Human PBMC
• 1. Human PBMC cells (Cat No. 70025.1, Zenbio) • 2. Lymphocyte medium (Cat No. LYMPH-1, Zenbio) • 3. TexMACS (Cat No. 130-097-196, Miltenyi) • 4. Cytostim-human (Cat No. 1130-092-173, Miltenyi) • 5. Human IL-17 ELISA (Cat No. D1700, R&D systems) • 6. Tecan Infinite M1000 plate reader (Tecan)
Experimental Procedure for IL-17 Production Assay
Cryopreserved peripheral blood human mononuclear cells (PBMCs) were rapidly thawed in warmed Lymphocyte media, and centrifuged cell suspension at 1000 rpm for 10 minutes. The supernatant was removed, and the cell pellets were gently resuspended in TexMACS media.
Human PBMC cells in TexMACS media were plated at 1×10^5 each well in triplicate. The test compounds at various concentrations or vehicle control (<0.5% DMSO) were added into cell culture. The cells were stimulated by cytostim (10 μL/mL) for 3 days in a humidified, 5% CO2 incubator at 37° C.
After incubation, the cell culture supernatant was harvested, and then removed particulates by centrifugation. Human IL-17 in the supernatant was measured using human IL-17 ELISA kit according to the manufacturer's protocol. IC50 values were determined using GraphPad Prism by plotting the compounds concentration versus percent inhibition.

[2] = molecular target: T1, RORγ LBD-GST tagged (Homo sapiens, UniProt P51449); assay: LanthaScreen TR-FRET RORγ coactivator assay; type: biochemical; details: Fluorescein-D22 coactivator peptide, 1 hour room temperature
T1 construct: RORγ LBD-GST tagged (Cat No. RORC-114H, Creative Biomart); purchased Creative Biomart RORC-114H
T1 sequence (P51449 269-508 limits assumed): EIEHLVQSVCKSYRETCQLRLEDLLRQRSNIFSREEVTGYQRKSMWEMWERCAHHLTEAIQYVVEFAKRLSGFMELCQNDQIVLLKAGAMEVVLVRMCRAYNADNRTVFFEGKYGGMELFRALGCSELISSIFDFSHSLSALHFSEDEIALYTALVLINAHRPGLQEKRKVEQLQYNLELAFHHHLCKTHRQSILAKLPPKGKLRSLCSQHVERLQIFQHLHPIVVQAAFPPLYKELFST
Outline: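 GST-tagged RORγ LBD (25 ng/reaction) was incubated in coregulator buffer D with 5 mM DTT and compound (top 3 μM, 7-fold steps, 7 doses), then with a mix containing 0.6 μM fluorescein-D22 peptide and 8 nM Tb anti-GST antibody. After 1 h at room temperature in the dark, 520/495 nm TR-FRET was read. IC50 came from log concentration versus percent inhibition.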

SMILES	IC50 [2] [µM]	IC50 [1] [µM]
CCS(=O)(=O)c1ccc(C(O)c2nc3c(Cl)c(-c4ccccc4OC(F)F)c(Cl)cc3[nH]2)cc1 (stereo not drawn) [Example 30, (4,6-dichloro-5-(2-(difluoromethoxy)phenyl)-1H-benzo[d]imidazol-2-yl)(4-(ethylsulfonyl)phenyl)methanol]	0.062	0.007
CCS(=O)(=O)c1ccc(Cc2nc3c(Cl)c(-c4ccccc4OCC(F)(F)F)c(Cl)cc3[nH]2)cc1 [Example 31, 4,6-dichloro-2-(4-(ethylsulfonyl)benzyl)-5-(2-(2,2,2-trifluoroethoxy)phenyl)-1H-benzo[d]imidazole]	0.01	0.011
CCS(=O)(=O)c1ccc(Cc2nc3c(Cl)c(-c4ccccc4CCC(F)(F)F)c(Cl)cc3[nH]2)cc1 [Example 34, 4,6-dichloro-2-(4-(ethylsulfonyl)benzyl)-5-(2-(3,3,3-trifluoropropyl)phenyl)-1H-benzo[d]imidazole]	0.016	0.049
CCS(=O)(=O)c1ccc(/C(=N\O)c2nc3c(Cl)c(-c4ccccc4OC(F)F)c(Cl)cc3[nH]2)cc1 [Example 38, (E,Z)-(4,6-dichloro-5-(2-(difluoromethoxy)phenyl)-1H-benzo[d]imidazol-2-yl)(4-(ethylsulfonyl)phenyl)methanone oxime]	0.147	0.873
CCS(=O)(=O)c1ccc(C(N)c2nc3c(Cl)c(-c4ccccc4OC(F)F)c(Cl)cc3[nH]2)cc1 (stereo not drawn) [Example 39, (4,6-dichloro-5-(2-(difluoromethoxy)phenyl)-1H-benzo[d]imidazol-2-yl)(4-(ethylsulfonyl)phenyl)methanamine]	0.007	0.038
O=S(=O)(CC1CC1)c1ccc(Cc2nc3c(Cl)c(-c4ccccc4OC(F)(F)F)c(Cl)cc3[nH]2)cc1 [Example 66, 4,6-dichloro-2-(4-((cyclopropylmethyl)sulfonyl)benzyl)-5-(2-(trifluoromethoxy)phenyl)-1H-benzo[d]imidazole]	0.002	0.01
O=S(=O)(CC1CC1)c1ccc(Cc2nc3c(Cl)c(-c4ccccc4OC(F)F)c(Cl)cc3[nH]2)cc1 [Example 72, 4,6-dichloro-2-(4-((cyclopropylmethyl)sulfonyl)benzyl)-5-(2-(difluoromethoxy)phenyl)-1H-benzo[d]imidazole]	0.006	0.003
CCS(=O)(=O)c1ccc(C(O)c2nc3c(Cl)c(-c4ccccc4OC(F)(F)F)c(Cl)cc3[nH]2)c(F)c1 (stereo not drawn) [Example 78, (4,6-dichloro-5-(2-(trifluoromethoxy)phenyl)-1H-benzo[d]imidazol-2-yl)(4-(ethylsulfonyl)-2-fluorophenyl)methanol]	0.028	0.069
O=S(=O)(CC1CC1)c1ccc(Cc2nc3c(Cl)c(-c4ccccc4OC(F)(F)F)c(Cl)cc3[nH]2)c(F)c1 [Example 80, 4,6-dichloro-2-(4-((cyclopropylmethyl)sulfonyl)-2-fluorobenzyl)-5-(2-(trifluoromethoxy)phenyl)-1H-benzo[d]imidazole]	0.031	0.013
O=S(=O)(CC1CC1)c1ccc(C(CO)c2nc3c(Cl)c(-c4ccccc4OC(F)(F)F)c(Cl)cc3[nH]2)c(F)c1 (stereo not drawn) [Example 81, 2-(4-((cyclopropylmethyl)sulfonyl)-2-fluorophenyl)-2-(4,6-dichloro-5-(2-(trifluoromethoxy)phenyl)-1H-benzo[d]imidazol-2-yl)ethanol]	0.035	0.003
CCS(=O)(=O)c1ccc(C(CO)c2nc3c(Cl)c(-c4ccccc4OC(F)F)c(Cl)cc3[nH]2)c(F)c1 (stereo not drawn) [Example 84, 2-(4,6-dichloro-5-(2-(difluoromethoxy)phenyl)-1H-benzo[d]imidazol-2-yl)-2-(4-(ethylsulfonyl)-2-fluorophenyl)ethanol]	0.019	0.013
CCS(=O)(=O)c1ccc(Cc2nc3c(Cl)c(-c4ccccc4OC(F)(F)F)c(Cl)cc3[nH]2)c(Cl)c1 [Example 86, 4,6-dichloro-2-(2-chloro-4-(ethylsulfonyl)benzyl)-5-(2-(trifluoromethoxy)phenyl)-1H-benzo[d]imidazole]	0.075	0.023
O=S(=O)(CC1CC1)c1ccc(C(CO)c2nc3c(Cl)c(-c4ccccc4OC(F)F)c(Cl)cc3[nH]2)c(F)c1 (stereo not drawn) [Example 99, 2-(4-((cyclopropylmethyl)sulfonyl)-2-fluorophenyl)-2-(4,6-dichloro-5-(2-(difluoromethoxy)phenyl)-1H-benzo[d]imidazol-2-yl)ethanol]	0.025	0.0024

Continued, in another order:

IC50 [2] [µM]	SMILES	IC50 [1] [µM]
0.269	CCS(=O)(=O)c1ccc(C(CO)c2nc3c(Cl)c(-c4ccccc4OC(F)F)c(Cl)cc3[nH]2)cc1 (stereo not drawn) [Example 29, 2-(4,6-dichloro-5-(2-(difluoromethoxy)phenyl)-1H-benzo[d]imidazol-2-yl)-2-(4-(ethylsulfonyl)phenyl)ethanol]	0.009
0.052	CCS(=O)(=O)c1ccc(C(CO)c2nc3c(Cl)c(-c4ccccc4OCC(F)(F)F)c(Cl)cc3[nH]2)cc1 (stereo not drawn) [Example 32, 2-(4,6-dichloro-5-(2-(2,2,2-trifluoroethoxy)phenyl)-1H-benzo[d]imidazol-2-yl)-2-(4-(ethylsulfonyl)phenyl)ethanol]	0.007
0.031	CCS(=O)(=O)c1ccc(C(O)c2nc3c(Cl)c(-c4ccccc4OCC(F)(F)F)c(Cl)cc3[nH]2)cc1 (stereo not drawn) [Example 33, (4,6-dichloro-5-(2-(2,2,2-trifluoroethoxy)phenyl)-1H-benzo[d]imidazol-2-yl)(4-(ethylsulfonyl)phenyl)methanol]	0.015
0.061	CCS(=O)(=O)c1ccc(C(O)c2nc3c(Cl)c(-c4ccccc4CCC(F)(F)F)c(Cl)cc3[nH]2)cc1 (stereo not drawn) [Example 35, (4,6-dichloro-5-(2-(3,3,3-trifluoropropyl)phenyl)-1H-benzo[d]imidazol-2-yl)(4-(ethylsulfonyl)phenyl)methanol]	0.008
0.048	CS(=O)(=O)c1ccc(C(CO)c2nc3c(Cl)c(-c4ccccc4C(F)(F)F)c(Cl)cc3[nH]2)cc1 (stereo not drawn) [Example 46, 2-(4,6-dichloro-5-(2-(trifluoromethyl)phenyl)-1H-benzo[d]imidazol-2-yl)-2-(4-(methylsulfonyl)phenyl)ethanol]	0.018
0.002	O=S(=O)(CC1CC1)c1ccc(C(CO)c2nc3c(Cl)c(-c4ccccc4OC(F)(F)F)c(Cl)cc3[nH]2)cc1 (stereo not drawn) [Example 67, 2-(4-((cyclopropylmethyl)sulfonyl)phenyl)-2-(4,6-dichloro-5-(2-(trifluoromethoxy)phenyl)-1H-benzo[d]imidazol-2-yl)ethanol]	0.002
0.03	O=S(=O)(CC1CC1)c1ccc(C(O)c2nc3c(Cl)c(-c4ccccc4OC(F)(F)F)c(Cl)cc3[nH]2)cc1 (stereo not drawn) [Example 68, (4-((cyclopropylmethyl)sulfonyl)phenyl)(4,6-dichloro-5-(2-(trifluoromethoxy)phenyl)-1H-benzo[d]imidazol-2-yl)methanol]	0.004
0.007	O=S(=O)(CC1CC1)c1ccc(Cc2nc3c(Cl)c(-c4ccccc4C(F)(F)F)c(Cl)cc3[nH]2)cc1 [Example 69, 4,6-dichloro-2-(4-((cyclopropylmethyl)sulfonyl)benzyl)-5-(2-(trifluoromethyl)phenyl)-1H-benzo[d]imidazole]	0.056
0.014	O=S(=O)(CC1CC1)c1ccc(C(CO)c2nc3c(Cl)c(-c4ccccc4C(F)(F)F)c(Cl)cc3[nH]2)cc1 (stereo not drawn) [Example 70, 2-(4-((cyclopropylmethyl)sulfonyl)phenyl)-2-(4,6-dichloro-5-(2-(trifluoromethyl)phenyl)-1H-benzo[d]imidazol-2-yl)ethanol]	0.006
0.029	O=S(=O)(CC1CC1)c1ccc(C(CO)c2nc3c(Cl)c(-c4ccccc4OC(F)F)c(Cl)cc3[nH]2)cc1 (stereo not drawn) [Example 73, 2-(4-((cyclopropylmethyl)sulfonyl)phenyl)-2-(4,6-dichloro-5-(2-(difluoromethoxy)phenyl)-1H-benzo[d]imidazol-2-yl)ethanol]	0.001
0.021	CCS(=O)(=O)c1ccc(C(CO)c2nc3c(Cl)c(-c4ccccc4OC(F)(F)F)c(Cl)cc3[nH]2)c(F)c1 (stereo not drawn) [Example 77, 2-(4,6-dichloro-5-(2-(trifluoromethoxy)phenyl)-1H-benzo[d]imidazol-2-yl)-2-(4-(ethylsulfonyl)-2-fluorophenyl)ethanol]	0.017
